Measurements: US8084466B2, “Bicyclic heteroaryl-substituted imidazoles as modulators of the histamine H4 receptor” (Janssen Pharmaceutica NV, priority 2007, dated 2011)

Target: T1, human histamine H4 receptor (Homo sapiens, UniProt Q9H3N8)
T1 construct: expressed in transfected cells; host or cells: SK-N-MC cells or COS7 cells, transient transfection with pH4R; cell membranes
Experiment: Binding Assay on Recombinant Human Histamine H4 Receptor
Settings: competition binding with 3H-histamine (5 nM; KD 5 nM), membranes of SK-N-MC or COS7 cells expressing human H4 receptor; average of results; > = highest value tested
Protocol: Biological Methods: Binding Assay on Recombinant Human Histamine H4 Receptor
SK-N-MC cells or COS7 cells were transiently transfected with pH4R and grown in 150 cm^2 tissue culture dishes. Cells were washed with saline solution, scraped with a cell scraper and collected by centrifugation (1000 rpm, 5 min). Cell membranes were prepared by homogenization of the cell pellet in 20 mM Tris-HCl with a polytron tissue homogenizer for 10 sec at high speed. Homogenate was centrifuged at 1000 rpm for 5 min at 4° C. The supernatant was then collected and centrifuged at 20,000×g for 25 min at 4° C. The final pellet was resuspended in 50 mM Tris-HCl. Cell membranes were incubated with ^3H-histamine (5-70 nM) in the presence or absence of excess histamine (10,000 nM). Incubation occurred at room temperature for […]. Membranes were harvested by rapid filtration over Whatman GF/C filters and washed 4 times with ice-cold 50 mM Tris HCl. Filters were then dried, mixed with scintillant and counted for radioactivity. SK-N-MC or COS7 cells expressing human histamine H4 receptor were used to measure the affinity of binding of other compounds and their ability to displace ^3H-ligand binding by incubating the above-described reaction in the presence of various concentrations of inhibitor or compound to be tested. For competition binding studies using ^3H-histamine, Ki values were calculated, based on an experimentally determined KD value of 5 nM and a ligand concentration of 5 nM, according to Y.-C.

Ki | SMILES
29 nM | Cc1c(-c2nc3c(C)c(F)ccc3[nH]2)ccc2c1CCN2CCCC1CCN(C)CC1 [Example 1, 5-Fluoro-4-methyl-2-{4-methyl-1-[3-(1-methyl-pieridin-4-yl)-proyl]-2,3-dihydro-1H-indol-5-yl}-1H-benzoimidazole]
15 nM | Cc1ccc2[nH]c(-c3ccc4c(c3C)CCN4CCCC3CCN(C)CC3)nc2c1C [Example 2, 4,5-Dimethyl-2-{4-methyl-1-[3-(1-methyl-piperidin-4-yl)-propyl]-2,3-dihydro-1H-indol-5-yl}-1H-benzoimidazole]
33 nM | Cc1cc(C)c2nc(-c3ccc4c(c3Cl)CCN4CCCC3CCN(C)CC3)[nH]c2c1 [Example 3, 2-{4-Chloro-1-[3-(1-methyl-piperidin-4-yl)-propyl]-2,3-dihydro-1H-indol-5-yl}-4,6-dimethyl-1H-benzoimidazole]
34 nM | Cc1c(F)ccc2[nH]c(-c3ccc4c(c3Cl)CCN4CCCC3CCN(C)CC3)nc12 [Example 4, 2-{4-Chloro-1-[3-(1-methyl-piperidin-4-yl)-propyl]-2,3-dihydro-1H-indol-5-yl}-5-fluoro-4-methyl-1H-benzoimidazole]
76 nM | COC(=O)c1ccc2[nH]c(-c3ccc4c(c3Cl)CCN4CCCC3CCN(C)CC3)nc2c1 [Example 5, 2-{4-Chloro-1-[3-(1-methyl-piperidin-4-yl)-propyl]-2,3-dihydro-1H-indol-5-yl}-1H-benzoimidazole-5-carboxylic acid methyl ester]
123 nM | Cc1c(F)ccc2[nH]c(-c3ccc4c(c3F)CCN4CCCC3CCN(C)CC3)nc12 [Example 6, 5-Fluoro-2-{4-fluoro-1-[3-(1-methyl-piperidin-4-yl)-propyl]-2,3-dihydro-1H-indol-5-yl}-4-methyl-1H-benzoimidazole]
29 nM | Cc1c(-c2nc3c(C)c(F)ccc3[nH]2)ccc2c1ccn2CCCC1CCN(C)CC1 [Example 7, 5-Fluoro-4-methyl-2-{4-methyl-1-[3-(1-methyl-piperidin-4-yl)-propyl]-1H-indol-5-yl}-1H-benzoimidazole]
29 nM | Cc1c(F)ccc2[nH]c(-c3ccc4c(ccn4CCCC4CCN(C)CC4)c3Cl)nc12 [Example 8, 2-{4-Chloro-1-[3-(1-methyl-piperidin-4-yl)-propyl]-1H-indol-5-yl}-5-fluoro-4-methyl-1H-benzoimidazole]
14 nM | Cc1cc(C)c2nc(-c3ccc4c(ccn4CCCC4CCN(C)CC4)c3Cl)[nH]c2c1 [Example 9, 2-{4-Chloro-1-[3-(1-methyl-piperidin-4-yl)-propyl]-1H-indol-5-yl}-4,6-dimethyl-1H-benzoimidazole]
19 nM | Cc1c(-c2nc3cc(Cl)ccc3[nH]2)ccc2c1ccn2CCCC1CCN(C)CC1 [Example 10, 5-Chloro-2-{4-methyl-1-[3-(1-methyl-piperidin-4-yl)-propyl]-1H-indol-5-yl}-1H-benzoimidazole]
77 nM | Cc1c(F)ccc2[nH]c(-c3ccc4c(ccn4CCCC4CCN(C)CC4)c3)nc12 [Example 11, 5-Fluoro-4-methyl-2-{1-[3-(1-methyl-piperidin-4-yl)-propyl]-1H-indol-5-yl}-1H-benzoimidazole]
120 nM | Cc1cccc2[nH]c(-c3ccc4c(ccn4CCCC4CCN(C)CC4)c3)nc12 [Example 12, 4-Methyl-2-{1-[3-(1-methyl-piperidin-4-yl)-propyl]-1H-indol-5-yl}-1H-benzoimidazole]
168 nM | Cc1c(F)ccc2[nH]c(-c3ccc4c(ccn4CCCN4CCN(C)CC4)c3)nc12 [Example 13, 5-Fluoro-4-methyl-2-{1-[3-(4-methyl-piperazin-1-yl)-propyl]-1H-indol-5-yl}-1H-benzoimidazole]
84 nM | Cc1cc(C)c2nc(-c3ccc4c(c3)c(C)c(C)n4CCCC3CCN(C)CC3)[nH]c2c1 [Example 14, 2-{2,3-Dimethyl-1-[3-(1-methyl-piperidin-4-yl)-propyl]-1H-indol-5-yl}-4,6-dimethyl-1H-benzoimidazole]
110 nM | Cc1c(C)n(CCCC2CCN(C)CC2)c2ccc(-c3nc4c(C)c(F)ccc4[nH]3)cc12 [Example 15, 2-{2,3-Dimethyl-1-[3-(1-methyl-piperidin-4-yl)-propyl]-1H-indol-5-yl}-5-fluoro-4-methyl-1H-benzoimidazole]
23 nM | Cc1c(F)ccc2[nH]c(-c3cccc4c3ccn4CCCCC3CCN(C)CC3)nc12 [Example 16, 5-Fluoro-4-methyl-2-{1-[4-(1-methyl-piperidin-4-yl)-butyl]-1H-indol-4-yl}-1H-benzoimidazole]
58 nM | CN1CCC(CCCCn2ccc3c(-c4nc5c(Cl)cccc5[nH]4)cccc32)CC1 [Example 17, 4-Chloro-2-{1-[4-(1-methyl-piperidin-4-yl)-butyl]-1H-indol-4-yl}-1H-benzoimidazole]
85 nM | CN1CCC(CCCCn2ccc3c(-c4nc5cc(C(F)(F)F)ccc5[nH]4)cccc32)CC1 [Example 18, 2-{1-[4-(1-Methyl-piperidin-4-yl)-butyl]-1H-indol-4-yl}-5-trifluoromethyl-1H-benzoimidazole]
404 nM | CN1CCC(CCCCn2ccc3c(-c4nc5cc6c(cc5[nH]4)OCO6)cccc32)CC1 [Example 19, 6-{1-[4-(1-Methyl-piperidin-4-yl)-butyl]-1H-indol-4-yl}-5H-[1,3]dioxolo[4′,5′:4,5]benzo[1,2-d] imidazole]
619 nM | CN1CCC(CCCCn2ccc3c(-c4nc5cc(C(=O)c6ccccc6)ccc5[nH]4)cccc32)CC1 [Example 20, (2-{1-[4-(1-Methyl-piperidin-4-yl)-butyl]-1H-indol-4-yl}-1H-benzoimidazol-5-yl)-phenyl-methanone]
187 nM | CN1CCC(CCCCn2ccc3c(-c4nc5cc6ccccc6cc5[nH]4)cccc32)CC1 [Example 21, 2-{1-[4-(1-Methyl-piperidin-4-yl)-butyl]-1H-indol-4-yl}-1H-naphtho[2,3-d]imidazole]
105 nM | Cc1cc(Cl)cc2[nH]c(-c3cccc4c3ccn4CCCCC3CCN(C)CC3)nc12 [Example 22, 6-Chloro-4-methyl-2-{1-[4-(1-methyl-piperidin-4-yl)-butyl]-1H-indol-4-yl}-1H-benzoimidazole]
98 nM | Cc1cccc2[nH]c(-c3cccc4c3ccn4CCCCC3CCN(C)CC3)nc12 [Example 23, 4-Methyl-2-{1-[4-(1-methyl-piperidin-4-yl)-butyl]-1H-indol-4-yl}-1H-benzoimidazole]
40 nM | CN1CCC(CCCCn2ccc3c(-c4nc5cc(C(C)(C)C)ccc5[nH]4)cccc32)CC1 [Example 24, 5-tert-Butyl-2-{1-[4-(1-methyl-piperidin-4-yl)-butyl]-1H-indol-4-yl}-1H-benzoimidazole]
350 nM | Cc1cc(C)c2nc(-c3ccc4ccn(CCCCC5CCN(C)CC5)c4c3)[nH]c2c1 [Example 25, 4,6-Dimethyl-2-{1-[4-(1-methyl-piperidin-4-yl)-butyl]-1H-indol-6-yl}-1H-benzoimidazole]
880 nM | Cc1c(F)ccc2[nH]c(-c3ccc4ccn(CCCCC5CCN(C)CC5)c4c3)nc12 [Example 26, 5-Fluoro-4-methyl-2-{1-[4-(1-methyl-piperidin-4-yl)-butyl]-1H-indol-6-yl}-1H-benzoimidazole]
750 nM | Cc1cccc2[nH]c(-c3ccc4ccn(CCCCC5CCN(C)CC5)c4c3)nc12 [Example 27, 4-Methyl-2-{1-[4-(1-methyl-piperidin-4-yl)-butyl]-1H-indol-6-yl}-1H-benzoimidazole]
